Laboratory results taken from patent US12077503B2, “Substituted cyclic amides and their use as herbicides” (FMC CORPORATION, priority 2015, dated 2024).

Experiments:
Assay type in all cases: in vivo
[1] = test system: ragweed (common ragweed, Ambrosia elatior); experiment: Test A postemergence; settings: postemergence, 0 to 100 scale (0 no effect, 100 complete control)
Procedure, shortened: (§1)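 Preemergence directed soil spray on seeded pots, or postemergence application to plants 2–10 cm, one- to two-leaf. Solvent mixture non-phytotoxic, with surfactant. Scored ~10 d later, visually, 0–100 vs untreated.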

[2] = test system: wheat (Triticum aestivum); experiment: Test A postemergence; settings: postemergence, 0 to 100 scale (0 no effect, 100 complete control)
Procedure, shortened: as §1

[3] = test system: giant foxtail (Setaria faberii); experiment: Test A postemergence; settings: postemergence, 0 to 100 scale (0 no effect, 100 complete control)
Procedure, shortened: as §1

corn (Zea mays) = experiment: Test A postemergence
Procedure, shortened: as §1

[4] = test system: ryegrass, Italian (Italian ryegrass, Lolium multiflorum); experiment: Test A postemergence; settings: postemergence, 0 to 100 scale (0 no effect, 100 complete control)
Procedure, shortened: as §1

Kochia (Kochia scoparia) [5] = experiment: Test A postemergence; settings: postemergence, 0 to 100 scale (0 no effect, 100 complete control)
Procedure, shortened: as §1

[6] = test system: Galium (catchweed bedstraw, Galium aparine); experiment: Test A postemergence; settings: postemergence, 0 to 100 scale (0 no effect, 100 complete control)
Procedure, shortened: as §1

[7] = test system: pigweed (Amaranthus retroflexus); experiment: Test A postemergence; settings: postemergence, 0 to 100 scale (0 no effect, 100 complete control)
Procedure, shortened: as §1

[8] = test system: blackgrass (Alopecurus myosuroides); experiment: Test A postemergence
Procedure, shortened: as §1

[9] = test system: barnyardgrass (Echinochloa crus-galli); experiment: Test A postemergence
Procedure, shortened: as §1

[10] = test system: ducksalad (Heteranthera limosa); experiment: Test B flooded paddy test; settings: Flood, 250 g ai/ha; 0 to 100 scale where 0 is no effect and 100 is complete control; 13 to 15 d
Procedure, shortened: (§2)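 Plants at 2-leaf stage flooded to 3 cm above soil, with compounds applied directly to paddy water and that depth maintained. Plants kept in greenhouse 13–15 d. Visual rating versus controls on a 0 (no effect) to 100 (complete control) scale.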

rice (Oryra sativa) = experiment: Test B flooded paddy test; settings: Flood, 250 g ai/ha; 0 to 100 scale where 0 is no effect and 100 is complete control; 13 to 15 d
Procedure, shortened: as §2

[11] = test system: sedge, umbrella (small-flower umbrella sedge, Cyperus difformis); experiment: Test B flooded paddy test; settings: Flood, 250 g ai/ha; 0 to 100 scale where 0 is no effect and 100 is complete control; 13 to 15 d
Procedure, shortened: as §2

[12] = test system: barnyardgrass (Echinochloa crus-galli); experiment: Test B flooded paddy test; settings: Flood, 250 g ai/ha; 0 to 100 scale where 0 is no effect and 100 is complete control; 13 to 15 d
Procedure, shortened: as §2

[13] = test system: ragweed (common ragweed, Ambrosia elatior); experiment: Test A preemergence
Procedure, shortened: as §1

[14] = test system: giant foxtail (Setaria faberii); experiment: Test A preemergence
Procedure, shortened: as §1

[15] = test system: ryegrass, Italian (Italian ryegrass, Lolium multiflorum); experiment: Test A preemergence
Procedure, shortened: as §1

Kochia (Kochia scoparia) [16] = experiment: Test A preemergence
Procedure, shortened: as §1

[17] = test system: pigweed (Amaranthus retroflexus); experiment: Test A preemergence
[18] = test system: barnyardgrass (Echinochloa crus-galli); experiment: Test A preemergence
Procedure, shortened: as §1

[19] = 125 g ai/ha, visual rating after approx. 10 d
[20] = 500 g ai/ha, visual injury, approx. 10 d
[21] = 125 g ai/ha, postemergence, visual rating after approx. 10 d, 0 to 100 scale (0 no effect, 100 complete control)
[22] = Postemergence, 500 g ai/ha, 0 to 100 scale where 0 is no effect and 100 is complete control
[23] = 125 g ai/ha, Preemergence, visual injury after approximately 10 d, 0 to 100 scale where 0 is no effect and 100 is complete control
[24] = 500 g ai/ha, preemergence, 0 to 100 scale, 0 = no effect, 100 = complete control
[25] = 500 g ai/ha, postemergence, visual injury, 0 to 100 scale (0 no effect, 100 complete control), approx. 10 d

| SMILES | Plant response rating, Ragweed [1, 19] | Plant response rating, Ragweed [1, 20] | Plant response rating, Wheat [2, 19] | Plant response rating, Wheat [2, 20] | Plant response rating, Foxtail, Giant [3, 19] | Plant response rating, Foxtail, Giant [3, 20] | Plant response rating, Corn (corn (Zea mays); [21]) | Plant response rating, Ryegrass, Italian [4, 19] | Plant response rating, Ryegrass, Italian [4, 20] | Plant response rating, Kochia (Kochia (Kochia scoparia) [5]; [19]) | Plant response rating, Kochia (Kochia (Kochia scoparia) [5]; [20]) | Plant response rating, Galium [6, 19] | Plant response rating, Galium [6, 20] | Plant response rating, Pigweed [7, 19] | Plant response rating, Pigweed [7, 20] | Plant response rating, Blackgrass [8, 21] | Plant response rating, Barnyardgrass [9, 21] | Plant response rating, Ducksalad [10] | Plant response rating, Rice (rice (Oryra sativa)) | Plant response rating, Sedge, Umbrella [11] | further results |
| --- | --- | --- | --- | --- | --- | --- | --- | --- | --- | --- | --- | --- | --- | --- | --- | --- | --- | --- | --- | --- | --- |
| CN1CC(c2cccc(F)c2)C(C(=O)Nc2cccc(F)c2F)C1=O (stereo not drawn) [Compound 632] | 20 | 30 | 30 | 60 | 90 | 90 | 20 | 30 | 50 | 60 | 60 | 50 | 50 | 0 | 40 | 50 | 90 | 100 | 30 | 50 | Plant response rating, Corn (corn (Zea mays); [22]): 80; Plant response rating, Blackgrass [8, 22]: 60; Plant response rating, Barnyardgrass [9, 22]: 90; Plant response rating, Barnyardgrass [12]: 80; Plant response rating, Ragweed [13, 23]: 60; Plant response rating, Ragweed [13, 24]: 70; Plant response rating, Foxtail, Giant [14, 23]: 90; Plant response rating, Foxtail, Giant [14, 24]: 90; Plant response rating, Ryegrass, Italian [15, 23]: 60; Plant response rating, Ryegrass, Italian [15, 24]: 70; Plant response rating, Kochia (Kochia (Kochia scoparia) [16]; [23]): 50; Plant response rating, Kochia (Kochia (Kochia scoparia) [16]; [24]): 70; Plant response rating, Pigweed [17, 23]: 0; Plant response rating, Pigweed [17, 24]: 70; Plant response rating, Barnyardgrass [18, 23]: 90; Plant response rating, Barnyardgrass [18, 24]: 90 |
| CN1CC(c2cc(F)cc(F)c2)C(C(=O)Nc2cccc3c2CCCC3)C1=O (stereo not drawn) [Compound 660] | 0 | 0 | 0 | 0 | 80 | 90 | 0 | 0 | 0 | 0 | 0 | 0 | 0 | 0 | 0 | 0 | 50 | 60 | 15 | 0 | Plant response rating, Corn (corn (Zea mays); [25]): 0; Plant response rating, Blackgrass [8, 25]: 40; Plant response rating, Barnyardgrass [9, 25]: 80; Plant response rating, Barnyardgrass [12]: 45; Plant response rating, Ragweed [13, 23]: 0; Plant response rating, Ragweed [13, 24]: 0; Plant response rating, Foxtail, Giant [14, 23]: 80; Plant response rating, Foxtail, Giant [14, 24]: 90; Plant response rating, Ryegrass, Italian [15, 23]: 0; Plant response rating, Ryegrass, Italian [15, 24]: 20; Plant response rating, Kochia (Kochia (Kochia scoparia) [16]; [23]): 0; Plant response rating, Kochia (Kochia (Kochia scoparia) [16]; [24]): 0; Plant response rating, Pigweed [17, 23]: 0; Plant response rating, Pigweed [17, 24]: 0; Plant response rating, Barnyardgrass [18, 23]: 60; Plant response rating, Barnyardgrass [18, 24]: 90 |
